Data set [1] concerns the target T1, Bifunctional epoxide hydrolase 2 (Homo sapiens, UniProt P34913).
T1 sequence (P34913 whole entry): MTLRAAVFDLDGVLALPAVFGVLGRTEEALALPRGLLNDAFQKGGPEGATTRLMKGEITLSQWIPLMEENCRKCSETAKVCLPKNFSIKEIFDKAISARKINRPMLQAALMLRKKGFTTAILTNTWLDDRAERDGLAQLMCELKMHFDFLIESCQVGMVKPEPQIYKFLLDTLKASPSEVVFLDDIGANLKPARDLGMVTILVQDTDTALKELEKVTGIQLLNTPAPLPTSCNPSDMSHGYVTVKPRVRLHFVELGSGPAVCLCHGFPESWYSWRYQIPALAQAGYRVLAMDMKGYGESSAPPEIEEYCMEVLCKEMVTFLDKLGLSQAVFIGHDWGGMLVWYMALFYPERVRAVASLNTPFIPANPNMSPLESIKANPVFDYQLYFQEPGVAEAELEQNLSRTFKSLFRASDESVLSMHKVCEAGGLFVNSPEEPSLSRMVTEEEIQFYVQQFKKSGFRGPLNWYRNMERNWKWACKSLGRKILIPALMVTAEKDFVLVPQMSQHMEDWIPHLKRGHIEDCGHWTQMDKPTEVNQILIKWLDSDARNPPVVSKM
Description: Competitive inhibition of soluble epoxide hydrolase (unknown origin).

Data set [2] has as its target T2, Bifunctional epoxide hydrolase 2 (Homo sapiens) (UniProt P34913).
T2 sequence (whole entry): T1 sequence (P34913 whole entry)
In words: Competitive inhibition of soluble epoxide hydrolase (unknown origin) at 100 uM relative to control.

Data set [3] concerns the target High mobility group protein B1 (Homo sapiens) (UniProt P09429). Description: Inhibition of HMGB1 (unknown origin) at 10 uM by ELISA relative to control. A general note: ELISA stands for enzyme-linked immunosorbent assay.
The species named for data set [4] is Mus musculus. In words: Inhibition of HMGB1 in mouse model relative to control. Format: functional.
The subject of data set [5] is Platelet. Description: Antiplatelet activity in rabbit platelet rich plasma assessed as inhibition of ADP-induced platelet aggregation at 30 ug/ml relative to control. Format: functional. The settings on record: Oryctolagus cuniculus.
For data set [6], the system named is Platelet. Description: Antiplatelet activity in rabbit platelet rich plasma assessed as inhibition of PAF-induced platelet aggregation at 50 ug/ml relative to control. To be noted: Oryctolagus cuniculus. Format: functional.
The target in data set [7] is Platelet-activating factor receptor (Homo sapiens) (UniProt P25105). In words: Inhibition of PAF receptor (unknown origin) assessed as reduction in receptor to rabbit platelet binding at 20 ug/ml relative to control.
A short description of data set [8]: Antioxidant activity assessed as DPPH radical scavenging activity at 50 ug/ml relative to control. Format: functional. Background: DPPH is a stable violet radical that fades when it is reduced.
Data set [9] is described as follows: Growth inhibition of HUVEC. Format: cell-based. The settings on record: human, HUVEC cells.
A short description of data set [10]: Growth inhibition of HUVEC at 5 uM relative to control. Format: cell-based. To be noted: human, HUVEC cells; read-out: GI.
In data set [11] the test system is Platelet. Description: Antiplatelet activity in rabbit platelet rich plasma assessed as inhibition of collagen-induced platelet aggregation at 300 uM preincubated for 3 mins followed by collagen addition measured after 10 mins relative to control. Format: functional. The settings on record: Oryctolagus cuniculus.
Data set [12] has as its system Platelet. Description: Antiplatelet activity in rabbit platelet rich plasma assessed as inhibition of arachidonic acid-induced platelet aggregation at 300 uM preincubated for 3 mins followed by arachidonic acid addition measured after 10 mins relative to control. Format: functional. The settings on record: Oryctolagus cuniculus.
Data set [13] deals with Platelet. In words: Antiplatelet activity in rabbit platelet rich plasma assessed as inhibition of PAF-induced platelet aggregation at 300 uM preincubated for 3 mins followed by PAF addition measured after 10 mins relative to control. The settings on record: Oryctolagus cuniculus. Format: functional.
In data set [14] the test system is Platelet. Description: Antiplatelet activity in rabbit platelet rich plasma assessed as inhibition of arachidonic acid-induced platelet aggregation at 150 uM preincubated for 3 mins followed by arachidonic acid addition measured after 10 mins relative to control. Format: functional. The settings on record: Oryctolagus cuniculus.
For data set [15], the system named is Platelet. In words: Antiplatelet activity in rabbit platelet rich plasma assessed as inhibition of PAF-induced platelet aggregation at 150 uM preincubated for 3 mins followed by PAF addition measured after 10 mins relative to control. Format: functional. The settings on record: Oryctolagus cuniculus.
Data set [16] relates to Platelet. In words: Antiplatelet activity in rabbit platelet rich plasma assessed as inhibition of collagen-induced platelet aggregation at 150 uM preincubated for 3 mins followed by collagen addition measured after 10 mins relative to control. Format: functional. To be noted: Oryctolagus cuniculus.
Data set [17] deals with 5-hydroxytryptamine receptor 6 (Homo sapiens, UniProt P50406). Description: Displacement of [3H]LSD from human 5-HT6 receptor expressed in CHO-K1 cell membranes after 60 mins. On the technique in general: Loss of bound radioactivity is the signal in a displacement assay; it reports binding, not function.
For data set [18], the target named is 5-hydroxytryptamine receptor 7 (Homo sapiens, UniProt P34969). Description: Displacement of [3H]LSD from human 5-HT7 receptor expressed in CHO-K1 cell membranes after 60 mins.
Data set [19] deals with Sodium-dependent serotonin transporter (Homo sapiens, UniProt P31645). In words: Displacement of [3H]Imipramine from human 5-HT transporter expressed in HEK-293 cell membranes after 30 mins.
Data set [20] deals with Mus musculus. Description: Antinarcotic activity in morphine-dependent C57BL/6 mouse assessed as inhibition of naloxone-induced jumping behavior in mouse at 5 mg/kg , ip after 30 mins relative to control. Format: functional. The settings on record: C57BL/6, ip, 0.5 h.

Platelet-activating factor receptor (Homo sapiens), sequence (P25105 whole entry): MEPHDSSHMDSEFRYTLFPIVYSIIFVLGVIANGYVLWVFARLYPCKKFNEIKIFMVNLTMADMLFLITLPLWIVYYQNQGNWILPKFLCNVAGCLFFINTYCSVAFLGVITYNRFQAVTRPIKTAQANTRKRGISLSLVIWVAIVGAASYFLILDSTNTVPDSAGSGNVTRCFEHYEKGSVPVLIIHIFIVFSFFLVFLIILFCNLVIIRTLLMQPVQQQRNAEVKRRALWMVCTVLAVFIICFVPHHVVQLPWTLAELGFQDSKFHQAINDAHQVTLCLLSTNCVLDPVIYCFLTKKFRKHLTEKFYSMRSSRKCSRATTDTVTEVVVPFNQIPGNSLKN
High mobility group protein B1 (Homo sapiens), sequence (P09429 whole entry): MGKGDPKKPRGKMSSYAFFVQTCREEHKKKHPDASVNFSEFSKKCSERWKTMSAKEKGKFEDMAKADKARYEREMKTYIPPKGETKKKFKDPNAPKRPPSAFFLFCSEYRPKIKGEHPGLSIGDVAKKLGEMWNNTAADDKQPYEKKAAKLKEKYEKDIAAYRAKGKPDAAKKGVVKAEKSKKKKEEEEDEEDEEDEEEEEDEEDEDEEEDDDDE
5-hydroxytryptamine receptor 7, sequence (P34969 whole entry): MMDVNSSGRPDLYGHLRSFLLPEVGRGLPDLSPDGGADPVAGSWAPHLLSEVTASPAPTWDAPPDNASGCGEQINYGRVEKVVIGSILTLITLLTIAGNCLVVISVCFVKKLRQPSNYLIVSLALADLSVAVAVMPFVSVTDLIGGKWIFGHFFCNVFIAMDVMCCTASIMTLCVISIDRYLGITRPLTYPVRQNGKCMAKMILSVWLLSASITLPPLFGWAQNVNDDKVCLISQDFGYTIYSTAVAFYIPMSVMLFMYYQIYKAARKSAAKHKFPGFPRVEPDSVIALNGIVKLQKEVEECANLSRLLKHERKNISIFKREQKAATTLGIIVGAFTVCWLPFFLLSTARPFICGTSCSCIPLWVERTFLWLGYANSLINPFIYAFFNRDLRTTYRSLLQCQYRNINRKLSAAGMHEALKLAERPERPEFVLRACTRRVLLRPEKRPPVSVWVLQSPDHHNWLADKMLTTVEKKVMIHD
Sodium-dependent serotonin transporter, sequence (P31645 whole entry): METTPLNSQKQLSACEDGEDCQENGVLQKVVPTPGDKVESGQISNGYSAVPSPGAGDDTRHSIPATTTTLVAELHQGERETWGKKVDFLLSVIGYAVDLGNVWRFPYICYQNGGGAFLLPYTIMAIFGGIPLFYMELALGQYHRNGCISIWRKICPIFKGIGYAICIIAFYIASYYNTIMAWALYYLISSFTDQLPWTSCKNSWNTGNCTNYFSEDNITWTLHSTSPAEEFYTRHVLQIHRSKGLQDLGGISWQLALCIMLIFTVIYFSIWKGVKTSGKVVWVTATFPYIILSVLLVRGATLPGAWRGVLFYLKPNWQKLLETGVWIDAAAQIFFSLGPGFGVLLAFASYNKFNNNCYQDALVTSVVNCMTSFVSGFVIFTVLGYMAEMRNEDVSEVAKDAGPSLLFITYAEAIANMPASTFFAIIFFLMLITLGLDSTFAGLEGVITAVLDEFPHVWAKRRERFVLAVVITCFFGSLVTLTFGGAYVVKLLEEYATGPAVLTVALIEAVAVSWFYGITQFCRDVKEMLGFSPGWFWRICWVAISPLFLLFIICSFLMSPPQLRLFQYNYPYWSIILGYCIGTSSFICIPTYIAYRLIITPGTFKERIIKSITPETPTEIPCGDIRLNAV
5-hydroxytryptamine receptor 6, sequence (P50406 whole entry): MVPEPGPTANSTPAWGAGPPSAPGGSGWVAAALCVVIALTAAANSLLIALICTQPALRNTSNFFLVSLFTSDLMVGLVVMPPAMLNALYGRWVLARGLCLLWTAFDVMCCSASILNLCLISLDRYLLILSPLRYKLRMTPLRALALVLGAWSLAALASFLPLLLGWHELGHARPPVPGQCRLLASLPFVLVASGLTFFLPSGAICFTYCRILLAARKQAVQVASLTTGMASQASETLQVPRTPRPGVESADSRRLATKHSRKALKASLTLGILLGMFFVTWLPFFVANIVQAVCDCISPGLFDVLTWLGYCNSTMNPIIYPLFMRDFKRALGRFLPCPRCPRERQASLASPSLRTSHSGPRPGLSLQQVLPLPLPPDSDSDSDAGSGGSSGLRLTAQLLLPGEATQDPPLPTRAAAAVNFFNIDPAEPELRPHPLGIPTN

Usually IC50 stands for the concentration at which inhibition is half-maximal. A low value points to greater potency. On to `COc1cc(/C=C/C(=O)O[C@H]2[C@H](O)[C@@H](CO)O[C@@]2(CO)O[C@H]2O[C@H](COC(=O)c3ccc(O)cc3)[C@@H](O)[C@H](O)[C@H]2O)cc(OC)c1OC`, for which the IC50 in [1] came to 9.1 µM. In data set [2], this molecule had an inhibition of over 100%.
As to `COc1cc(/C=C/C(=O)O[C@H]2[C@H](O)[C@@H](CO)O[C@]2(CO)O[C@H]2O[C@H](CO)[C@@H](OC(=O)c3ccccc3)[C@H](O)[C@H]2O)cc(OC)c1OC`, the half-inhibitory concentration (IC50) in data set [1] was determined as 18 µM. Besides, the inhibition in data set [2] is over 100%.
For `COc1cc(/C=C/C(=O)Oc2ccc3[nH]c4ccccc4c3c2)cc(OC)c1OC`, in data set [3], the inhibition was 70.2%. For the same molecule, in data set [4], the “inhibition (INH)” value came out at 58.9%.
As for `COc1ccc(CCNC(=O)/C=C/c2cc(OC)c(OC)c(OC)c2)cc1`, the inhibition at 30 µg/mL in data set [5] was 29.1%. In data set [6], the inhibition at 50 µg/mL was found to be 39.3%. The inhibition in [7] was 19%.
As to `COc1ccc(/C=C/COC(=O)/C=C/c2cc(OC)c(OC)c(OC)c2)cc1`, the inhibition in [8] is 18.6%.
Regarding `COc1cc(/C=C/C(=O)OC[C@H]2O[C@H](O[C@@]3(CO)O[C@H](CO)[C@@H](O)[C@@H]3OC(=O)/C=C/c3cc(OC)c(OC)c(OC)c3)[C@H](O)[C@@H](O)[C@@H]2O)cc(OC)c1O`, the IC50 in data set [1] stood at 27.2 µM. In data set [2], this molecule registered an inhibition of 97.4%.
Broadly, the GI50 is the concentration that inhibits growth by half. Read a high GI50 as lower sensitivity of the cells. With `COc1cc(/C=C/C(=O)Nc2ccc(NC(=O)[C@@H](O)[C@H](N)CCc3ccccc3)cc2)cc(OC)c1OC`, in data set [9], growth was halved (GI50) at 0.85 µM. Also, in data set [10], the inhibition at 5 µM is over 98%.
For `CC(=O)Oc1ccccc1C(=O)O` [ASPIRIN], the values for the inhibition at 300 µM in data set [11], in data set [12] and in data set [13] were 5.8%, 100% and 0.3%, respectively. Moreover, the inhibition at 150 µM in data set [14] came out at 75%; in data set [15], 0.3%.
With `COc1cc(/C=C/C(=O)N2CC(C)CC(C)C2)cc(OC)c1OC` (configuration not stated), the inhibition at 300 µM in data set [11] was 98.6%; in data set [12], 100%; in data set [13], 94.8%. The inhibition at 150 µM stood at 97.2% in data set [16], 100% in [14] and 56.9% in [15].
One may read the inhibition in vivo as the change of the read-out against control, counted positive when it falls. `CCCCCCCCCCNC(=O)/C=C/c1cc(OC)c(OC)c(OC)c1`: the IC50 turned out to be 5 µM in data set [17], 5.6 µM in data set [18] and 6.7 µM in [19]. In addition, in [20], the inhibition in vivo at 5 mg/kg stood at 80%.
`COc1cc(/C=C/C(=O)NCCc2ccc(O)cc2)cc(OC)c1OC`: the inhibition at 30 µg/mL in [5] stood at 24.4%. For the same molecule, the inhibition at 50 µg/mL in [6] was found to be 28.8%. Further, the inhibition in data set [7] was found to be 12%.

(Values after ChEMBL document CHEMBL4346712, “Research progress in the biological activities of 3,4,5-trimethoxycinnamic acid (TMCA) derivatives” (Eur J Med Chem, 2019).)
